{"source": "paper PMC4942689", "about": "“Deciphering the function of the CNGB1b subunit in olfactory CNG channels” (Scientific Reports, 2016)", "key": {"CNGA2TM:A4RE:B1bRE [1]": {"molecular_target": "T1, CNGA2TM:A4RE:B1bRE (Rattus norvegicus, UniProt A0A8I5ZN27+Q00195+Q64359, R1106E/R430E/T539M)", "T1 construct": "expressed in transfected cells; host or cells: Xenopus laevis oocytes (cRNA injection), excised inside-out patches", "T1 sequence (Q00195 whole entry T539M)": "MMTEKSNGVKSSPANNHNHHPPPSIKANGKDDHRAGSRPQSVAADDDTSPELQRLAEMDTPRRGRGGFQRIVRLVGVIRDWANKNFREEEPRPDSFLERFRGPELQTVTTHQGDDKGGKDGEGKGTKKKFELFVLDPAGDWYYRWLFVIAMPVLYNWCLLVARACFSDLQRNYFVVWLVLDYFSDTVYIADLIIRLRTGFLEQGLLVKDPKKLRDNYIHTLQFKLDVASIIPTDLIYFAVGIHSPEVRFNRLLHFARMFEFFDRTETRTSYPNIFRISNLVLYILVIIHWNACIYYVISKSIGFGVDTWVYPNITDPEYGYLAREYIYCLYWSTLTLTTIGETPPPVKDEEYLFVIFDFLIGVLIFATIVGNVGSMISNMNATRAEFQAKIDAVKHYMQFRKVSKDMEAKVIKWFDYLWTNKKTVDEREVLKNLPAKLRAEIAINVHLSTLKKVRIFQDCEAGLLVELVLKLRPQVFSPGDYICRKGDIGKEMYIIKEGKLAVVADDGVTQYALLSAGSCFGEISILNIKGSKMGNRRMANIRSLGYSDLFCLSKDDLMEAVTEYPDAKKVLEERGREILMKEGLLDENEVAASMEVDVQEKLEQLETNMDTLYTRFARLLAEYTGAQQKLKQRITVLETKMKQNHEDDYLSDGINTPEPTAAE", "T1 sequence (Q64359 whole entry R430E)": "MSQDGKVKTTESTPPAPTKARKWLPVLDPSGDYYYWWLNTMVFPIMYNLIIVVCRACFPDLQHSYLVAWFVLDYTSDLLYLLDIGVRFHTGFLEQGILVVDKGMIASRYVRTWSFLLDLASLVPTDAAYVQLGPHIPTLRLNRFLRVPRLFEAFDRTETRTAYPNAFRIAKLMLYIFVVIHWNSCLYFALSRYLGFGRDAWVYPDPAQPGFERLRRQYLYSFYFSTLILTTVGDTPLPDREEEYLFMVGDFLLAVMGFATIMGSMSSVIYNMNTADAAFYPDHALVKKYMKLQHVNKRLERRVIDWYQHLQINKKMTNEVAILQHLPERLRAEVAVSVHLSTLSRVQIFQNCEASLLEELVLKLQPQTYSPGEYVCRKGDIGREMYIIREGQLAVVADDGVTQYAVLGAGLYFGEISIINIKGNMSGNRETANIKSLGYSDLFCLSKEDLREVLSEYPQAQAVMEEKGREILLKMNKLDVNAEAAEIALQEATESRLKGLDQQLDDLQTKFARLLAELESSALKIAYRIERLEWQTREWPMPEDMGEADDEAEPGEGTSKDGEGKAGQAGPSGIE", "T1 sequence (A0A8I5ZN27 1-858 isoform A0A8I5ZN27-2 R657E)": "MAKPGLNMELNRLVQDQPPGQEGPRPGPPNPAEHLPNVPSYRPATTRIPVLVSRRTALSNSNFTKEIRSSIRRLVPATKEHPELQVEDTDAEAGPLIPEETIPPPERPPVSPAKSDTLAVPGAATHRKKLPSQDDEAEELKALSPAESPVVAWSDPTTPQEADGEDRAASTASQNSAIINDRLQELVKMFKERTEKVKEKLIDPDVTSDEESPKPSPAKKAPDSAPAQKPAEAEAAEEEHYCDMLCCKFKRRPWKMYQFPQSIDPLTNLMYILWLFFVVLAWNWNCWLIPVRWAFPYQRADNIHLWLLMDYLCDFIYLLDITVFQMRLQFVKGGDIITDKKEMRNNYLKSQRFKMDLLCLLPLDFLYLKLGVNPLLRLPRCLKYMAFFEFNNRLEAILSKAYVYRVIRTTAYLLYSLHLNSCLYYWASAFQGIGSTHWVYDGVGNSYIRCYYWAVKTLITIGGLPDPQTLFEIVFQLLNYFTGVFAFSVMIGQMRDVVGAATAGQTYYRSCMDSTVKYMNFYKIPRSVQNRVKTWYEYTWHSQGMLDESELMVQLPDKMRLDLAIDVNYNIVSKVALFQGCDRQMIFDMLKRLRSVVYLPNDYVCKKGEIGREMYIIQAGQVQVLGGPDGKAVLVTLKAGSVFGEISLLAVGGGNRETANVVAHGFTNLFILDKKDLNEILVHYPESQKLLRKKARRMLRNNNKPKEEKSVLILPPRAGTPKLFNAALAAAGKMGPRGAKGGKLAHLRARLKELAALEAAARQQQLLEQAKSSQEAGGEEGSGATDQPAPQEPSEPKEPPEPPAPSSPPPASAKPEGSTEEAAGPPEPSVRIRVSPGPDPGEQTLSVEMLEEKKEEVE", "assay": "Ligand binding, confocal patch-clamp fluorometry", "parameters": "key: +: ligand binding to the respective modulatory subunits was either observed or not; −: ligand binding to the respective modulatory subunits was either observed or not", "conditions": "10 μM; construct CNGA2TM:A4RE:B1bRE", "source_text": "(§1) The channels to be studied were expressed in Xenopus oocytes. We first tested the subunit composition in our channels when coexpressing different combinations of subunits by single-channel recordings. For CNGA2:A4, CNGA2:B1b and CNGA2:A4:B1b channels we exclusively obtained the specific and easily distinguishable single-channel activity reported earlier when injecting respective amounts of RNA[7][13]. We therefore assumed that the channels formed had always the expected subunit composition. The specific binding of cyclic nucleotides and the activation of the CNG channels were measured in parallel by means of confocal patch-clamp fluorometry in excised patches, using fluorescent cyclic nucleotide derivatives. The method has been described previously.\nTo verify the hypothesis that the CNGB1b subunit in CNGA2:A4:B1b channels binds cyclic nucleotides, we coexpressed CNGB1b with CNGA4RE and either CNGA2RE or CNGA2TM and measured ligand binding in the presence of 10 μM fcGMP. […]\nThe ligand binding was measured in macropatches by patch-clamp fluorometry[41][42] combined with confocal microscopy. […] To distinguish between the fluorescence of the unbound ligands from that of the bound ligands, a second dye, DY647 (Dyomics, Jena, Germany), was added to the bath solution. […]"}, "CNGA2TM:A4RE:B1bRE [2]": {"molecular_target": "T1, CNGA2TM:A4RE:B1bRE", "assay": "Channel activation during confocal patch-clamp fluorometry", "type": "biochemical", "conditions": "10 μM fcGMP; all four binding sites disabled", "protocol": "(§2) To verify the hypothesis that the CNGB1b subunit in CNGA2:A4:B1b channels binds cyclic nucleotides, we coexpressed CNGB1b with CNGA4RE and either CNGA2RE or CNGA2TM and measured ligand binding in the presence of 10 μM fcGMP. […] To verify the specificity of the binding to the CNGB1b subunit in these heterotetrameric channels, we coexpressed the CNGB1bRE subunit with CNGA2RE and CNGA4RE.\n(§3) Figure 2 In a CNGA2:A4 background the CNGB1b subunit binds both fcGMP and fHcAMP and activates the channel. (a) Binding of fcGMP to the CNGB1b subunit evokes channel activation. Binding of fcGMP to CNGB1b was observed when coexpressed with either CNGA2RE:A4RE or CNGA2TM:A4RE (upper diagram). […] (b) Binding of fHcAMP to CNGB1b was observed when coexpressed with both CNGA2RE and CNGA4RE. When disabling the binding domain of CNGB1b, the fluorescence intensity was nearly abolished. Correspondingly, CNGA2RE:A4RE:B1b channels were activated by the ligand only when the CNGB1b binding site was available.\n(§4) Patch-clamp experiments were performed using an Axopatch 200B amplifier (Molecular Devices LLC, CA, U.S.A.) in the inside-out configuration. The patch pipettes for recording of macroscopic currents were pulled from borosilicate glass tubing (outer diameter 2.0 mm, inner diameter 1.0 mm; Hilgenberg GmbH, Germany). The initial resistance was 0.7–1.3 MΩ. The patches were formed as pushed inside-out patches. […] Cyclic nucleotide concentration jumps were performed using a double-barreled glass pipette mounted on a piezo-driven device. Intracellular (bath) and extracellular (pipette) solutions contained (mM) 150 KCl, 1 EGTA, 5 Hepes, pH = 7.4 with KOH. […] Currents in the absence of the cyclic nucleotide were subtracted. All patches included in this study were first tested for channel expression in the presence of a saturating ligand concentration. Only patches with large current, i.e. a large number of channels, were included in our statistics. The currents were measured at +10 mV or, if mentioned, at +100 mV.\n(§5) The ligand binding was measured in macropatches by patch-clamp fluorometry[41][42] combined with confocal microscopy. […] Recordings were performed with an LSM 510 or 710 confocal microscope (Zeiss, Jena, Germany) and were triggered by the ISO3 software (MFK, Niedernhausen, Germany). To distinguish between the fluorescence of the unbound ligands from that of the bound ligands, a second dye, DY647 (Dyomics, Jena, Germany), was added to the bath solution. The 543-nm and 633-nm lines of a He-Ne laser were used to excite fcAMP/fcGMP and DY647, respectively. The method of confocal patch-clamp fluorometry has been described in detail previously."}, "CNGA2RE:A4RE:B1bRE": {"molecular_target": "T2, CNGA2RE:A4RE:B1bRE (Rattus norvegicus, UniProt A0A8I5ZN27+Q00195+Q64359, R1106E/R430E/R538E)", "T2 construct": "expressed in transfected cells; host or cells: Xenopus laevis oocytes (cRNA injection), excised inside-out patches", "T2 sequence (Q00195 whole entry R538E)": "as the sequence (Q00195 whole entry T539M) above, with R538E, M539T counted along it", "T2 sequence (Q64359 whole entry R430E)": "as the sequence (Q64359 whole entry R430E) above", "T2 sequence (A0A8I5ZN27 1-858 isoform A0A8I5ZN27-2 R657E)": "as the sequence (A0A8I5ZN27 1-858 isoform A0A8I5ZN27-2 R657E) above", "assay": "Channel activation during confocal patch-clamp fluorometry", "type": "biochemical", "conditions": "10 μM fcGMP; all four binding sites disabled", "protocol": "as §2, §3, §4, §5"}, "CNGA2TM:A4RE:B1b": {"molecular_target": "T3, CNGA2TM:A4RE:B1b (Rattus norvegicus, UniProt A0A8I5ZN27+Q00195+Q64359, R430E/T539M)", "T3 construct": "expressed in transfected cells; host or cells: Xenopus laevis oocytes (cRNA injection), excised inside-out patches", "T3 sequence (Q00195 whole entry T539M)": "as the sequence (Q00195 whole entry T539M) above", "T3 sequence (Q64359 whole entry R430E)": "as the sequence (Q64359 whole entry R430E) above", "T3 sequence (A0A8I5ZN27 1-858 isoform A0A8I5ZN27-2, stated change not applied)": "as the sequence (A0A8I5ZN27 1-858 isoform A0A8I5ZN27-2 R657E) above, with E657R counted along it", "assay": "Channel activation during confocal patch-clamp fluorometry", "type": "biochemical", "conditions": "10 μM fcGMP; normalized to current at 4 mM cGMP", "protocol": "as §2, §3, §4, §5"}, "CNGA2RE:B1b": {"molecular_target": "T4, CNGA2RE:B1b (Rattus norvegicus, UniProt A0A8I5ZN27+Q00195, R538E)", "T4 construct": "expressed in transfected cells; host or cells: Xenopus laevis oocytes (cRNA injection), excised patches", "T4 sequence (Q00195 whole entry R538E)": "as the sequence (Q00195 whole entry T539M) above, with R538E, M539T counted along it", "T4 sequence (A0A8I5ZN27 1-858 isoform A0A8I5ZN27-2, stated change not applied)": "as the sequence (A0A8I5ZN27 1-858 isoform A0A8I5ZN27-2 R657E) above, with E657R counted along it", "assay": "Ligand binding, confocal patch-clamp fluorometry", "parameters": "key to Ligand binding to CNGB1b: +: ligand binding to the respective modulatory subunits was either observed or not; −: ligand binding to the respective modulatory subunits was either observed or not", "conditions": "10 μM; construct CNGA2RE:B1b", "source_text": "as §1\n(§6) To study ligand binding to the CNGB1b subunit selectively, the binding domain of the CNGA2 subunits was disabled by either the point mutation R538E (red crosses in the cartoons) or T539M (blue crosses in the cartoons)[13][20]. […] To this end, CNGB1b was coexpressed with CNGA2RE.\nas §5"}, "CNGA2TM:B1b": {"molecular_target": "T5, CNGA2TM:B1b (Rattus norvegicus, UniProt A0A8I5ZN27+Q00195, T539M)", "T5 construct": "expressed in transfected cells; host or cells: Xenopus laevis oocytes (cRNA injection), excised patches", "T5 sequence (Q00195 whole entry T539M)": "as the sequence (Q00195 whole entry T539M) above", "T5 sequence (A0A8I5ZN27 1-858 isoform A0A8I5ZN27-2, stated change not applied)": "as the sequence (A0A8I5ZN27 1-858 isoform A0A8I5ZN27-2 R657E) above, with E657R counted along it", "assay": "Ligand binding, confocal patch-clamp fluorometry", "parameters": "key to Ligand binding to CNGB1b: +: ligand binding to the respective modulatory subunits was either observed or not; −: ligand binding to the respective modulatory subunits was either observed or not", "source_text": "as §1, §6, §5"}, "CNGA2RE:A4": {"system": "CNGA2RE:A4", "parameters": "method as in Nache et al., 2012; key: +: ligand binding to the respective modulatory subunits was either observed or not; −: ligand binding to the respective modulatory subunits was either observed or not", "conditions": "10 μM; construct CNGA2RE:A4; ref Nache et al., 2012; cited from earlier work"}}}
{"substance": "8-[DY-547]-AET-cGMP [fcGMP]", "values": [{"measurement": "Ligand binding to CNGA4", "setting": "CNGA2TM:A4RE:B1bRE [1]", "value": "−"}, {"measurement": "Ligand binding to CNGB1b", "setting": "CNGA2TM:A4RE:B1bRE [1]", "value": "−"}, {"measurement": "activation", "setting": "CNGA2TM:A4RE:B1bRE [2]", "value": "did not trigger activation"}, {"measurement": "activation", "setting": "CNGA2RE:A4RE:B1bRE", "value": "did not trigger activation"}, {"measurement": "activation (I/Imax)", "setting": "CNGA2TM:A4RE:B1b", "value": "1.7 ± 0.6", "unit": "%"}, {"measurement": "Ligand binding to CNGB1b", "setting": "CNGA2RE:B1b", "value": "−"}, {"measurement": "binding to CNGB1b (in words)", "setting": "CNGA2TM:B1b; 10 μM fcGMP, coexpressed with disabled CNGA2 (CNGA2TM)", "value": "does not bind"}, {"measurement": "Ligand binding to CNGB1b", "setting": "CNGA2TM:B1b; 10 μM, construct CNGA2TM:B1b", "value": "−"}, {"measurement": "Ligand binding to CNGA4", "setting": "CNGA2RE:A4", "value": "+"}]}
